Tests used:
[1] = target: T1, Muscarinic acetylcholine receptor M1 (Homo sapiens) (UniProt P11229); experiment: Ability to displace [3H]N-methylscopolamine binding to M1 human recombinant muscarinic receptor in CHO cells at concentration 10 uM; type: cell-based
T1 sequence (whole entry): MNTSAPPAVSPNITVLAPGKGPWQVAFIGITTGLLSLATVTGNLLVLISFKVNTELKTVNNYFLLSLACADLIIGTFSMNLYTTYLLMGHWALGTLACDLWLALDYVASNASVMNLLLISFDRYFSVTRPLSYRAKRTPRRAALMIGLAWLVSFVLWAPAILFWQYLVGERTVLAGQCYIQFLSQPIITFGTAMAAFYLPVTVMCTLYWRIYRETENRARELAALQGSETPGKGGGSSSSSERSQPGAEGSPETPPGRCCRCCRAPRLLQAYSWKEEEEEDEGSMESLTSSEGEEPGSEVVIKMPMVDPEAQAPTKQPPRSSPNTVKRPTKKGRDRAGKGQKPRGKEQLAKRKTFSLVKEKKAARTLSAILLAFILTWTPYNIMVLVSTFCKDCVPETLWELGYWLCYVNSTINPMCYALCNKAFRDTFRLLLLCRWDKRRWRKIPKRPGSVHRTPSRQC

[2] = target: T1, Muscarinic acetylcholine receptor M1 (Homo sapiens); experiment: Ability to displace [3H]N-methylscopolamine binding to M1 human recombinant muscarinic receptor in CHO cells at concentration 1 uM; type: cell-based
[3] = target: T2, Neuronal acetylcholine receptor (Rattus norvegicus) (UniProt P04757+P09483+P12389+P12390+P12392+P43144+Q9JLB5+P12391+P43143+P20420+Q05941); experiment: (§1) Ability to displace [3H]cytisine binding to Nicotinic acetylcholine receptor in synaptic membrane fractions from rat cerebral cortices at a concentration of 10 uM.; type: cell membranes
[4] = target: T3, Muscarinic acetylcholine receptor M2 (Homo sapiens) (UniProt P08172); experiment: Ability to displace [3H]N-methylscopolamine binding to M2 human recombinant muscarinic receptor in CHO cells at concentration 1 uM; type: cell-based
T3 sequence (whole entry): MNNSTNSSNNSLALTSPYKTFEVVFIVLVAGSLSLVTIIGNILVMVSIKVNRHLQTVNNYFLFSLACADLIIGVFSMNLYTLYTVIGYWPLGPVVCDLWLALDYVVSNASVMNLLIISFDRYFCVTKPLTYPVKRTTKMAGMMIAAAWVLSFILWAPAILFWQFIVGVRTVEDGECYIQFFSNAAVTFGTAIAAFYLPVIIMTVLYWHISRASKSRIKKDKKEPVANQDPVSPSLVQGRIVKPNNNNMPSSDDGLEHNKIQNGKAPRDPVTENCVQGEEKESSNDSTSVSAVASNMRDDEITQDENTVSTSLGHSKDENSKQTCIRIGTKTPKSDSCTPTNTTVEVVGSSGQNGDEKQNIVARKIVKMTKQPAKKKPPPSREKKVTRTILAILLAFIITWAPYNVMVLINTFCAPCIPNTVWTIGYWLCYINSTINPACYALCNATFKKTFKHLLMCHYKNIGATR

[5] = target: T3, Muscarinic acetylcholine receptor M2 (Homo sapiens); experiment: Ability to displace [3H]N-methylscopolamine binding to M2 human recombinant muscarinic receptor in CHO cells at concentration 10 uM; type: cell-based
[6] = target: Muscarinic acetylcholine receptor M3 (Homo sapiens) (UniProt P20309); experiment: Ability to displace [3H]N-methylscopolamine binding to M3 human recombinant muscarinic receptor in CHO cells at concentration 10 uM; type: cell-based
Chain of Muscarinic acetylcholine receptor M3 (Homo sapiens) (P20309 whole entry, looked up): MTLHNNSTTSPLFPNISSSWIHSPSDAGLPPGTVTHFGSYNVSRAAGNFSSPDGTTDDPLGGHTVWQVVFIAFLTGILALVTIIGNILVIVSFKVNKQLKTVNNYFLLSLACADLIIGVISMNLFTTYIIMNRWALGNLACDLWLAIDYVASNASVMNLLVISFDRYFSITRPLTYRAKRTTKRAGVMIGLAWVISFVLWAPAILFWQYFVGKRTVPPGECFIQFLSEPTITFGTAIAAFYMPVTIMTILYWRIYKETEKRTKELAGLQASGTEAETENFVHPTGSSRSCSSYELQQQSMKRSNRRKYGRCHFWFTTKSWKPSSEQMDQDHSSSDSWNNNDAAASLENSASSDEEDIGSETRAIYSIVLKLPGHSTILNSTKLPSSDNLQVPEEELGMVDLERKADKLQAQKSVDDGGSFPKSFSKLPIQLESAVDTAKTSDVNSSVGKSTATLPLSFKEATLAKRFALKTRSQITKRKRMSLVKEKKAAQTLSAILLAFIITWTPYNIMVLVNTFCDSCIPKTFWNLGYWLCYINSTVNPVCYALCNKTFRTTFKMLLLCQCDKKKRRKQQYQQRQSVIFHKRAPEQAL

[7] = target: Neuronal acetylcholine receptor; experiment: The compound was tested for its binding affinity against Nicotinic acetylcholine receptor in synaptic membrane fractions from rat cerebral cortices.; type: cell membranes
[8] = target: T4, Acetylcholine receptor subunit delta (Torpedo californica) (UniProt P02718); experiment: as §1; type: cell membranes; details: target entry is the homologue from another species
T4 sequence (whole entry): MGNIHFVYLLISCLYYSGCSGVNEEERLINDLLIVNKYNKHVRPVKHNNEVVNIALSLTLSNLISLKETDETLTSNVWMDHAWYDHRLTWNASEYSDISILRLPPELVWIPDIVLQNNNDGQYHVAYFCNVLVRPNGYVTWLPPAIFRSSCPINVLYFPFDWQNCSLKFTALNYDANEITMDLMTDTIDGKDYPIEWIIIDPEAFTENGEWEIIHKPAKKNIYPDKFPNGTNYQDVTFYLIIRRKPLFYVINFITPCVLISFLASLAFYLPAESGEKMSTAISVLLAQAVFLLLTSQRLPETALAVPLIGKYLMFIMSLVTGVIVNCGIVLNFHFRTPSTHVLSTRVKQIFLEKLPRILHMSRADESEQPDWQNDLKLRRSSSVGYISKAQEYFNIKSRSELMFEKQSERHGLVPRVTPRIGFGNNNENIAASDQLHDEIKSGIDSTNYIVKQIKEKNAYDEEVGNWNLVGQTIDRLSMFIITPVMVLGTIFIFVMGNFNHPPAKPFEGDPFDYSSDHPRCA

[9] = target: Muscarinic acetylcholine receptor M3 (Homo sapiens) (UniProt P20309); experiment: Ability to displace [3H]N-methylscopolamine binding to M3 human recombinant muscarinic receptor in CHO cells at concentration 1 uM; type: cell-based
[10] = target: T2, Neuronal acetylcholine receptor (Rattus norvegicus); experiment: Ability to displace [3H]cytisine binding to nicotinic receptor in synaptic membrane fractions from rat cerebral cortices at a concentration of 10 uM.; type: cell membranes
[11] = target: T5, Muscarinic acetylcholine receptor M1 (Homo sapiens, UniProt P11229); experiment: The compound was tested for its binding affinity against M1 human recombinant muscarinic receptor in CHO cells.; type: cell-based
T5 sequence (P11229 whole entry): T1 sequence (whole entry)

[12] = target: Neuronal acetylcholine receptor subunit alpha-7 (Rattus norvegicus, UniProt Q05941); experiment: The compound was tested for its binding affinity against nicotinic receptor in synaptic membrane fractions from rat cerebral cortices.; type: cell membranes
Chain of Neuronal acetylcholine receptor subunit alpha-7 (Q05941 whole entry): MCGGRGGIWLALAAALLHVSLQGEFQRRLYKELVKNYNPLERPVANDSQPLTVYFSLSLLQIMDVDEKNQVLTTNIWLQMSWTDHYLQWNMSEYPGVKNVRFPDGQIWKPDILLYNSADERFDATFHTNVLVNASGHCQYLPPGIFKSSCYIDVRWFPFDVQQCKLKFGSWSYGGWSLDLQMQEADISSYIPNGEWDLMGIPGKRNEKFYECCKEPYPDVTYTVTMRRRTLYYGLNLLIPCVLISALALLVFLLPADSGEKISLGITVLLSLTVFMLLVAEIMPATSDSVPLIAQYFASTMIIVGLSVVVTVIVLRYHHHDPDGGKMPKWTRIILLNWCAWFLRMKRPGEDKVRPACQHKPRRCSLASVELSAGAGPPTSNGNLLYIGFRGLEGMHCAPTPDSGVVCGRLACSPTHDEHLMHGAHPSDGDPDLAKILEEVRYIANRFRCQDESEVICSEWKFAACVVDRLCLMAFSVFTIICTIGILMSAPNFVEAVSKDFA

SMILES	inhibition [1] [%]	inhibition [2] [%]	inhibition [3] [%]	inhibition [4] [%]	inhibition [5] [%]	inhibition [6] [%]	IC50 [7] [nM]	inhibition [8] [%]	inhibition [9] [%]	inhibition [10] [%]	IC50 [11] [nM]	IC50 [12] [nM]
COc1ccc(COc2ccc(-c3cc(/C=C4\CN5CCC4C5)on3)cc2)cc1 (centres undefined)	84	69	0									
Nc1ccc(-c2cc(/C=C3/CN4CCC3CC4)on2)cc1	86	33		5	30	19	709	94	1			
Oc1ccc(-c2cc(/C=C3\CN4CCC3C4)on2)cc1 (centres undefined)	0	0		1	10	20			10	36		
COc1ccc(COc2ccc(-c3cc(/C=C4\CN5CCC4C5)on3)cc2OCc2ccc(OC)cc2)cc1 (centres undefined)	100	87		77	95	98			88	0	114	
Nc1ccc(-c2cc(/C=C3\CN4CCC3CC4)on2)cc1	4	0	77	0	5	0			0			
COc1ccc(COc2ccc(-c3cc(/C=C4\CN5CCC4CC5)on3)cc2OCc2ccc(OC)cc2)cc1	100	85		49	92	98			76	0	260	
Oc1ccc(-c2cc(/C=C3/CN4CCC3CC4)on2)cc1O	59	13		12	43	39	486	95	5			
COc1ccc(COc2ccc(-c3cc(/C=C4/CN5CCC4CC5)on3)cc2OCc2ccc(OC)cc2)cc1	100	85		27	89	94			44	0	247	
Oc1ccc(-c2cc(/C=C3/CN4CCC3CC4)on2)cc1	65	6		3	17	14			3	93		695
COc1ccc(-c2cc(/C=C3\CN4CCC3CC4)on2)cc1OC	22	3		14	22	7			0	58		
COc1ccc(-c2cc(/C=C3/CN4CCC3C4)on2)cc1 (centres undefined)	45	8	58	15	19	0			0			
